Biological target: T1, SMARCA2 (Homo sapiens, UniProt P51531)
T1 construct: endogenous in cells; host or cells: HT1080 (CRISPR HiBiT knock-in clone, generated in house)
Assay: SMARCA2 HiBiT degradation assay (cellular)
Format: cell-based
Details: table head names A549; for DC50: 6 h incubation, HiBiT-tagged SMARCA2, luminescence read-out, read-out: HiBit A549 SMARCA2 IP (nM) 6 h; for Emax: A549, 6 h incubation, Emax = amount of residual protein remaining in the cell following compound treatment

T1 sequence (P51531 whole entry): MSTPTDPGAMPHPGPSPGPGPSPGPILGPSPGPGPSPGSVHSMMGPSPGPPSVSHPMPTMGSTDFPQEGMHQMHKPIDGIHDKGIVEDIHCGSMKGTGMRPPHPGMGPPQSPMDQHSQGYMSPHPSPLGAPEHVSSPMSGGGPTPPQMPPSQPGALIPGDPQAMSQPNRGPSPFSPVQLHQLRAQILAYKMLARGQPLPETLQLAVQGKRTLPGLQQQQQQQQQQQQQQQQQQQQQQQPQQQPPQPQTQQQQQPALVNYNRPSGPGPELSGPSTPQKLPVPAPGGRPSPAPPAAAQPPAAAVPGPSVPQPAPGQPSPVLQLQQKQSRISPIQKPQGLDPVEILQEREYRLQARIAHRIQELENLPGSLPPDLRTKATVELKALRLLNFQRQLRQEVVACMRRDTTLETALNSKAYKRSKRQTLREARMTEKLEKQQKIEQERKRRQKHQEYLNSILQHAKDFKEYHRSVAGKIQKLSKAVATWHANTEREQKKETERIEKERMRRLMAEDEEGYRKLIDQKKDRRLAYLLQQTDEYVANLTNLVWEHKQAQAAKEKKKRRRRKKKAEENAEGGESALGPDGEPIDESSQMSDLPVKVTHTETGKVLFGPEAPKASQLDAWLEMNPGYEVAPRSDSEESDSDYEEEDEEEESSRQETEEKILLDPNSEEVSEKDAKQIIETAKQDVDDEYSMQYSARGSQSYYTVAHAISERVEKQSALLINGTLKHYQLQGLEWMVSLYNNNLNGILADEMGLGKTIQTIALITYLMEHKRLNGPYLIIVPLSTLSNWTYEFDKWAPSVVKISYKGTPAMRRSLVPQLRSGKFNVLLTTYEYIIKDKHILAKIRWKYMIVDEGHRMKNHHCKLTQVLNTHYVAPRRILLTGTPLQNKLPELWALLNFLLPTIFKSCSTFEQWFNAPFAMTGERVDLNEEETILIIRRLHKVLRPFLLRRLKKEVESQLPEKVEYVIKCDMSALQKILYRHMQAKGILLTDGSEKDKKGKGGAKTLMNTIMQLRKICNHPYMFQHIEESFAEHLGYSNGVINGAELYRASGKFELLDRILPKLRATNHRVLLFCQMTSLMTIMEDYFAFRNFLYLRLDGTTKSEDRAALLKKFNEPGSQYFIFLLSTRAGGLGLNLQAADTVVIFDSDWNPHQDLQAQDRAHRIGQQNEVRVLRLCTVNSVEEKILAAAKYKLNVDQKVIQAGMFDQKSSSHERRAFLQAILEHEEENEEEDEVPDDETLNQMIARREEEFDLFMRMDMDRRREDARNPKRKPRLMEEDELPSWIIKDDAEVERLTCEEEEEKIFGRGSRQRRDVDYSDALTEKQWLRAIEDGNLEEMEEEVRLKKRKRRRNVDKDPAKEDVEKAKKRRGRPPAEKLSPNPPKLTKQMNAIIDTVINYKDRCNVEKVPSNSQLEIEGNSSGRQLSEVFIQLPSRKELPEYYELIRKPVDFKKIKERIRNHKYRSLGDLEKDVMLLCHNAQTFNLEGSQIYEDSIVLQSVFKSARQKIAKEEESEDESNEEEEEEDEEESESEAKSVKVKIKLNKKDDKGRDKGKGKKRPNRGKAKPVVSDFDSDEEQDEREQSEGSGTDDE

DC50 [nM]	Emax [%]	Structure (SMILES)
35	50	Nc1nnc(-c2ccccc2O)cc1N1CCC(C(=O)N2CCC(NC(=O)C3CCN(c4ccc5c(c4)C(=O)N(C4CCC(=O)NC4=O)C5=O)CC3)CC2)(c2ccccc2)CC1 (centres unmarked) [Example 119, N-(1-(1-(3-amino-6-(2-hydroxyphenyl)pyridazin-4-yl)-4-phenylpiperidine-4-carbonyl)piperidin-4-yl)-1-(2-(2,6-dioxopiperidin-3-yl)-1,3-dioxoisoindolin-5-yl)piperidine-4-carboxamide]
18	37	Nc1nnc(-c2ccccc2O)cc1N1CCN(c2cccc(CN3CCN(C(=O)CCC4CCN(c5ccc6c(c5)C(=O)N(C5CCC(=O)NC5=O)C6=O)CC4)CC3)c2)C2(CC2)C1 (centres unmarked) [Example 128, 5-(4-(3-(4-(3-(7-(3-amino-6-(2-hydroxyphenyl)pyridazin-4-yl)-4,7-diazaspiro[2.5]octan-4-yl)benzyl)piperazin-1-yl)-3-oxopropyl)piperidin-1-yl)-2-(2,6-dioxopiperidin-3-yl)isoindoline-1,3-dione]
1370	62	Nc1nnc(-c2ccccc2O)cc1N1CCC(C(=O)N2CC3(CCN(C(=O)COc4ccc5c(c4)C(=O)N(C4CCC(=O)NC4=O)C5=O)C3)C2)(c2ccccc2)CC1 (centres unmarked) [Example 189, 5-(2-(2-(1-(3-amino-6-(2-hydroxyphenyl)pyridazin-4-yl)-4-phenylpiperidine-4-carbonyl)-2,6-diazaspiro[3.4]octan-6-yl)-2-oxoethoxy)-2-(2,6-dioxopiperidin-3-yl)isoindoline-1,3-dione]
109	48	Nc1nnc(-c2ccccc2O)cc1N1CCC(NC(=O)CN2CCC(c3ccc(OC4CCC(=O)NC4=O)cc3)CC2)(c2ccccc2)CC1 (centres unmarked) [Example 108, N-[1-[3-amino-6-(2-hydroxyphenyl)pyridazin-4-yl]-4-phenyl-4-piperidyl]-2-[4-[4-[(2,6-dioxo-3-piperidyl)oxy]phenyl]-1-piperidyl]acetamide]
382	35	Nc1nnc(-c2ccccc2O)cc1O[C@H]1CCCN(c2ccc(N3CCN(CCCCC(=O)N4CCC(Cn5cc(COc6cccc7c6C(=O)N(C6CCC(=O)NC6=O)C7=O)nn5)CC4)CC3)cc2)C1 (mixture of isomers) [Example 135, 2-(2,6-dioxo-3-piperidyl)-4-[[1-[[1-[5-[4-[4-[rac-(3S)-3-[3-amino-6-(2-hydroxyphenyl)pyridazin-4-yl]oxy-1-piperidyl]phenyl]piperazin-1-yl]pentanoyl]-4-piperidyl]methyl]triazol-4-yl]methoxy]isoindoline-1,3-dione]
126	41	Nc1nnc(-c2ccccc2O)cc1N1CC(Oc2cccc(C(=O)N3CCN(C(=O)CCCCCCCCCNc4cccc5c4C(=O)N(C4CCC(=O)NC4=O)C5=O)CC3)c2)C1 (centres unmarked) [Example 146, 4-[[10-[4-[3-[1-[3-amino-6-(2-hydroxyphenyl)pyridazin-4-yl]azetidin-3-yl]oxybenzoyl]piperazin-1-yl]-10-oxo-decyl]amino]-2-(2,6-dioxo-3-piperidyl)isoindoline-1,3-dione]
49	56	Nc1nnc(-c2ccccc2O)cc1N1CCC(C(=O)N2CCC3(CC2)CN(C(=O)CN2CCC(c4ccc(NC5CCC(=O)NC5=O)cc4)CC2)CCO3)(c2ccccc2)CC1 (centres unmarked) [Example 169, 3-((4-(1-(2-(9-(1-(3-amino-6-(2-hydroxyphenyl)pyridazin-4-yl)-4-phenylpiperidine-4-carbonyl)-1-oxa-4,9-diazaspiro[5.5]undecan-4-yl)-2-oxoethyl)piperidin-4-yl)phenyl)amino)piperidine-2,6-dione]
107	44	CC(Oc1cccc2c1C(=O)N(C1CCC(=O)NC1=O)C2=O)c1cn(CCCCCCOCCN2CCN(c3ccc(N4CCC[C@H](Oc5cc(-c6ccccc6O)nnc5N)C4)cc3)CC2)nn1 (mixture of isomers) [Example 202, 2-(2,6-dioxo-3-piperidyl)-4-[1-[1-[6-[2-[4-[4-[rac-(3S)-3-[3-amino-6-(2-hydroxyphenyl)pyridazin-4-yl]oxy-1-piperidyl]phenyl]piperazin-1-yl]ethoxy]hexyl]triazol-4-yl]ethoxy]isoindoline-1,3-dione]

The next lines start with the compound.

Structure (SMILES)	DC50 [nM]	Emax [%]
Nc1nnc(-c2ccccc2O)cc1O[C@H]1CCCN(c2ccc(N3CCN(CCCCCCCCCn4cc(CNc5cccc6c5C(=O)N(C5CCC(=O)NC5=O)C6=O)nn4)CC3)cc2)C1 (mixture of isomers) [Example 66, 2-(2,6-dioxo-3-piperidyl)-4-[[1-[9-[4-[4-[rac-(3S)-3-[3-amino-6-(2-hydroxyphenyl)pyridazin-4-yl]oxy-1-piperidyl]phenyl]piperazin-1-yl]nonyl]triazol-4-yl]methylamino]isoindoline-1,3-dione]	144	60
Nc1nnc(-c2ccccc2O)cc1OC1CCCN(c2ccc(N3CCN(C(=O)CCCCCCCCCCn4cc(CNc5cccc6c5C(=O)N(C5CCC(=O)NC5=O)C6=O)nn4)CC3)cc2)C1 (centres unmarked) [Example 29, 4-[[1-[11-[4-[4-[3-[3-amino-6-(2-hydroxyphenyl)pyridazin-4-yl]oxy-1-piperidyl]phenyl]piperazin-1-yl]-11-oxo-undecyl]triazol-4-yl]methylamino]-2-(2,6-dioxo-3-piperidyl)isoindoline-1,3-dione]	158	50
Nc1nnc(-c2ccccc2O)cc1N1CCC(C(=O)NCC2CCN(C(=O)CN3CCC(c4ccc(OC5CCC(=O)NC5=O)cc4)CC3)CC2)(c2ccccc2)CC1 (centres unmarked) [Example 101, 1-(3-amino-6-(2-hydroxyphenyl)pyridazin-4-yl)-N-((1-(2-(4-(4-((2,6-dioxopiperidin-3-yl)oxy)phenyl)piperidin-1-yl)acetyl)piperidin-4-yl)methyl)-4-phenylpiperidine-4-carboxamide]	102	28
Nc1nnc(-c2ccccc2O)cc1N1CC2CCC(C1)N2c1cccc(OCCN2CCN(C(=O)CCCCCCNc3cccc4c3C(=O)N(C3CCC(=O)NC3=O)C4=O)CC2)c1 (centres unmarked) [Example 1, 4-[[7-[4-[2-[3-[3-[3-amino-6-(2-hydroxyphenyl)pyridazin-4-yl]-3,8-diazabicyclo[3.2.1]octan-8-yl]phenoxy]ethyl]piperazin-1-yl]-7-oxo-heptyl]amino]-2-(2,6-dioxo-3-piperidyl)isoindoline-1,3-dione]	68	55
Nc1nnc(-c2ccccc2O)cc1N1CC2CCC(C1)N2c1cccc(OCCN2CCN(CCC3CCN(c4ccc5c(c4)C(=O)N(C4CCC(=O)NC4=O)C5=O)CC3)CC2)c1 (racemic) [Example 34, rac-5-[4-[2-[4-[2-[3-[3-[3-amino-6-(2-hydroxyphenyl)pyridazin-4-yl]-3,8-diazabicyclo[3.2.1]octan-8-yl]phenoxy]ethyl]piperazin-1-yl]ethyl]-1-piperidyl]-2-(2,6-dioxo-3-piperidyl)isoindoline-1,3-dione]	26	24
CN(C(=O)C1CCN(Cc2cccc(N3C4CCC3CN(c3cc(-c5ccccc5O)nnc3N)C4)c2)CC1)C1CCN(c2ccc3c(c2)C(=O)N(C2CCC(=O)NC2=O)C3=O)CC1 (racemic) [Example 118, rac-1-[[3-[3-[3-amino-6-(2-hydroxyphenyl)pyridazin-4-yl]-3,8-diazabicyclo[3.2.1]octan-8-yl]phenyl]methyl]-N-[1-[2-(2,6-dioxo-3-piperidyl)-1,3-dioxo-isoindolin-5-yl]-4-piperidyl]-N-methyl-piperidine-4-carboxamide]	11	26
Nc1nnc(-c2ccccc2O)cc1N1CCN(c2ccccc2)C(C(=O)NC2CCN(C(=O)CCC3CCN(c4ccc5c(c4)C(=O)N(C4CCC(=O)NC4=O)C5=O)CC3)CC2)C1 (centres unmarked) [Example 54, 4-[3-amino-6-(2-hydroxyphenyl)pyridazin-4-yl]-N-[1-[3-[1-[2-(2,6-dioxo-3-piperidyl)-1,3-dioxo-isoindolin-5-yl]-4-piperidyl]propanoyl]-4-piperidyl]-1-phenyl-piperazine-2-carboxamide]	42	63
Nc1nnc(-c2ccccc2O)cc1N1CC2CCC(C1)N2c1cccc(OCCN2CCN(C(=O)N3CCC(c4ccc(OC5CCC(=O)NC5=O)cc4)CC3)CC2)c1 (racemic) [Example 50, rac-3-[4-[1-[4-[2-[3-[3-[3-amino-6-(2-hydroxyphenyl)pyridazin-4-yl]-3,8-diazabicyclo[3.2.1]octan-8-yl]phenoxy]ethyl]piperazine-1-carbonyl]-4-piperidyl]phenoxy]piperidine-2,6-dione]	16	44
Nc1nnc(-c2ccccc2O)cc1N1CCC(CNC(=O)CNc2cccc3c2C(=O)N(C2CCC(=O)NC2=O)C3=O)(c2ccccc2)CC1 (centres unmarked) [Example 76, N-((1-(3-amino-6-(2-hydroxyphenyl)pyridazin-4-yl)-4-phenylpiperidin-4-yl)methyl)-2-((2-(2,6-dioxopiperidin-3-yl)-1,3-dioxoisoindolin-4-yl)amino)acetamide]	221	57
Nc1nnc(-c2ccccc2O)cc1N1CC2CCC(C1)N2c1cc(F)cc(CN2CCN(C(=O)C3CCN(c4ccc5c(c4)C(=O)N(C4CCC(=O)NC4=O)C5=O)CC3)CC2)c1 (racemic) [Example 193, rac-5-[4-[4-[[3-[3-[3-Amino-6-(2-hydroxyphenyl)pyridazin-4-yl]-3,8-diazabicyclo[3.2.1]octan-8-yl]-5-fluoro-phenyl]methyl]piperazine-1-carbonyl]-1-piperidyl]-2-(2,6-dioxo-3-piperidyl)isoindoline-1,3-dione]	51	25
Nc1nnc(-c2ccccc2O)cc1N1CC2CCC(C1)N2c1cccc(CN2CCN(C(=O)CCC3CCN(c4ccc5c(c4)C(=O)N(C4CCC(=O)NC4=O)C5=O)CC3)CC2)n1 (racemic) [Example 133, rac-5-[4-[3-[4-[[6-[3-[3-amino-6-(2-hydroxyphenyl)pyridazin-4-yl]-3,8-diazabicyclo[3.2.1]octan-8-yl]-2-pyridyl]methyl]piperazin-1-yl]-3-oxo-propyl]-1-piperidyl]-2-(2,6-dioxo-3-piperidyl)isoindoline-1,3-dione]	64	44

— US20230024096A1, “BIFUNCTIONAL COMPOUNDS FOR THE TREATMENT OF CANCER” (Hoffmann-La Roche Inc., priority 2019, published 2023)
